The record followed here is US8637509B2, “Azaindazoles” (GlaxoSmithKline LLC, priority 2010, dated 2014).

The target of the assay is T1, EZH2 (Homo sapiens, UniProt Q15910).
T1 construct: GRITS37108
T1 sequence (Q15910 whole entry): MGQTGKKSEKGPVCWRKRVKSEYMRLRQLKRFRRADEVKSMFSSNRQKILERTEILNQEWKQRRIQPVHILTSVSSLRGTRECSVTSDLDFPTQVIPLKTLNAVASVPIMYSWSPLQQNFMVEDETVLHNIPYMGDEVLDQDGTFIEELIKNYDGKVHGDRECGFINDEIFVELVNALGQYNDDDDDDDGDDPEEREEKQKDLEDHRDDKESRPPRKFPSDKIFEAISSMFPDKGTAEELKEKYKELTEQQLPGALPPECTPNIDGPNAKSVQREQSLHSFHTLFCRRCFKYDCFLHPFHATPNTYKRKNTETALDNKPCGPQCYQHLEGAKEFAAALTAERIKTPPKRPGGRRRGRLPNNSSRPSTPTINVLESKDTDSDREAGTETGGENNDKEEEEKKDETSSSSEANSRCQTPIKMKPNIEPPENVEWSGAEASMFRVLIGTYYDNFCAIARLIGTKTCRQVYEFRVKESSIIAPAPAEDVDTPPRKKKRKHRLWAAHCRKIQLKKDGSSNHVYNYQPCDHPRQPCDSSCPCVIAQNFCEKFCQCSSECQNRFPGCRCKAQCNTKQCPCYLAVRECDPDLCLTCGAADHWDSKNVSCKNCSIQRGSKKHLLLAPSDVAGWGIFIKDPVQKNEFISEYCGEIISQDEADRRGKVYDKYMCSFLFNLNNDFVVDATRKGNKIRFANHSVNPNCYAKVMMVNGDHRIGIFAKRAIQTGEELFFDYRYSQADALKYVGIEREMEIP
T1 sequence (O75530 whole entry partner): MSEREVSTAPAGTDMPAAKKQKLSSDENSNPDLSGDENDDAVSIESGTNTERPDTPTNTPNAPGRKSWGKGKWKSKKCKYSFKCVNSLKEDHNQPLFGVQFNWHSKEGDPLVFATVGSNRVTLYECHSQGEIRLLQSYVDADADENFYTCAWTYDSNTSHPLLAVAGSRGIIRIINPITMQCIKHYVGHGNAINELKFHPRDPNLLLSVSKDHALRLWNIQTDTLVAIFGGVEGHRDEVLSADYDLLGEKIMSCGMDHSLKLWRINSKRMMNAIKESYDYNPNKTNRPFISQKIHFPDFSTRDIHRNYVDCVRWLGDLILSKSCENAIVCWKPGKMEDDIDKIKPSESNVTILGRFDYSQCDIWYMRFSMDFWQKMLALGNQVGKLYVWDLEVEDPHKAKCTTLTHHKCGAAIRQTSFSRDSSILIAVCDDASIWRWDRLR
T1 sequence (Q15022 whole entry partner): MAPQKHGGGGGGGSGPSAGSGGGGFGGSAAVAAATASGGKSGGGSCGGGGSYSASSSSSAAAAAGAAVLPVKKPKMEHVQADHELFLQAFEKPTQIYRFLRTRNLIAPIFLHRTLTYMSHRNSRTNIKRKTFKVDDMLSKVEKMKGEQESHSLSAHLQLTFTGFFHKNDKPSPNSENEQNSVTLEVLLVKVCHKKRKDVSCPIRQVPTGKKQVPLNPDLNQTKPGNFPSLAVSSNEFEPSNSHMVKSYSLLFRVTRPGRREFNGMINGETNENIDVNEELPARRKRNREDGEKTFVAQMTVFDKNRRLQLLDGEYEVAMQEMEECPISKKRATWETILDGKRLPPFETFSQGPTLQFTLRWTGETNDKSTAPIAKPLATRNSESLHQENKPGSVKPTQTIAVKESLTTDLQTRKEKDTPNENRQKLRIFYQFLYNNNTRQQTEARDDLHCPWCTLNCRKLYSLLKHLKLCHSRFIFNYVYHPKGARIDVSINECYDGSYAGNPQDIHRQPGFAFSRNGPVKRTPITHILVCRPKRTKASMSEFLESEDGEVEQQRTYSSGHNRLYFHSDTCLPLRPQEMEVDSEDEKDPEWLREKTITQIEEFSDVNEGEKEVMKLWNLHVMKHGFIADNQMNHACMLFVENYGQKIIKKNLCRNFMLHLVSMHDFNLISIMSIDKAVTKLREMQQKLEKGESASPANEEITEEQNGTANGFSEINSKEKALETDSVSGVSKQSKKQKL
Description: EZH2 methyltransferase SPA assay (3H-SAM, Hela nucleosomes). Format: biochemical. The conditions noted are these: read-out: IC50.
Description: • 1. […] Prepare 500 μM SAH quench solution in ddH20 with 5-10 drops of concentrated HCl to dissolve. • 5. Prepare 6 mg/ml RNA binding SPA beads (Perkin Elmer) suspended in 0.2 M Citric Acid, pH 2.2
Part C. […] Dispense 5 μL no enzyme control (assay buffer mix) to column 18 of plates. • 2. Dispense 5 μL of enzyme mix to the remaining wells in the plate. Centrifuge plate to mix and incubate at room temperature for 30 minutes. • 3. Dispense 5 μL of substrate mix to all wells to initiate the reactions. Centrifuge plate to mix and incubate at room temperature for 2 hours. • 4. […] Dispense 10 μL of 6 mg/ml RNA binding SPA beads prepared in 0.2 M citric acid, pH 2.2 using the Evolution instrument. Continuously shake the beads while adding to plates to prevent beads from settling. • 6. Seal the plates with Perkin Elmer top seals and allow the beads to equilibrate in the plate for at least 30 minutes at room temperature. • 7. […] Read plates in Microbeta after at least 5 hours incubation. Plates can be read immediately, but signal increases over time.
Reagent addition can be done manually or with automated liquid handler.
*The final DMSO concentration in this assay is 1%.
*The positive control is in column 6; negative control is in column 18.
In general, IC50 refers to the concentration at which inhibition is half-maximal. As for `Cc1cc(C)c(CNC(=O)c2cc(-c3ccc4[nH]c(=O)[nH]c4c3)nc3c2c(C)nn3C(C)(C)C)c(=O)[nH]1` [Ex 88, 1-(1,1-Dimethylethyl)-N-[(4,6-dimethyl-2-oxo-1,2-dihydro-3-pyridinyl)methyl]-3-methyl-6-(2-oxo-2,3-dihydro-1H-benzimidazol-5-yl)-1H-pyrazolo[3,4-b]pyridine-4-carboxamide], the IC50 turned out to be 52 nM.

As to `Cc1cc(C)c(CNC(=O)c2cc(-c3ccc(N4CCOCC4)nc3)nc3c2c(C)nn3C(C)(C)C)c(=O)[nH]1` [Ex 89, 1-(1,1-Dimethylethyl)-N-[(4,6-dimethyl-2-oxo-1,2-dihydro-3-pyridinyl)methyl]-3-methyl-6-[6-(4-morpholinyl)-3-pyridinyl]-1H-pyrazolo[3,4-b]pyridine-4-carboxamide], the IC50 is 67 nM.

As for `Cc1cc(C)c(CNC(=O)c2cc(-c3ccc4nonc4c3)nc3c2c(C)nn3C(C)C)c(=O)[nH]1` [Ex 90, 6-(2,1,3-Benzoxadiazol-5-yl)-N-[(4,6-dimethyl-2-oxo-1,2-dihydro-3-pyridinyl)methyl]-3-methyl-1-(1-methylethyl)-1H-pyrazolo[3,4-b]pyridine-4-carboxamide], the IC50 turned out to be 173 nM.

For the compound `CNS(=O)(=O)c1ccc(-c2cc(C(=O)NCc3c(C)cc(C)[nH]c3=O)c3c(C)nn(C(C)C)c3n2)cc1` [Ex 92, N-[(4,6-Dimethyl-2-oxo-1,2-dihydro-3-pyridinyl)methyl]-3-methyl-6-{4-[(methylamino)sulfonyl]phenyl}-1-(1-methylethyl)-1H-pyrazolo[3,4-b]pyridine-4-carboxamide], the 50% inhibitory concentration (IC50) worked out at 76 nM.

`CC(=O)Nc1ccc(-c2cc(C(=O)NCc3c(C)cc(C)[nH]c3=O)c3c(C)nn(C(C)C)c3n2)cc1` [Ex 93, 6-[4-(Acetylamino)phenyl]-N-[(4,6-dimethyl-2-oxo-1,2-dihydro-3-pyridinyl)methyl]-3-methyl-1-(1-methylethyl)-1H-pyrazolo[3,4-b]pyridine-4-carboxamide]: the IC50 was determined as 83 nM.

Turning to `Cc1cc(C)c(CNC(=O)c2cc(-c3ccc(C(N)=O)cc3)nc3c2cnn3C(C)C)c(=O)[nH]1` [Ex 94, 6-[4-(Aminocarbonyl)phenyl]-N-[(4,6-dimethyl-2-oxo-1,2-dihydro-3-pyridinyl)methyl]-1-(1-methylethyl)-1H-pyrazolo[3,4-b]pyridine-4-carboxamide], the half-maximal inhibitory concentration (IC50) turned out to be 103 nM.

For the compound `Cc1cc(C)c(CNC(=O)c2cc(NCCNc3ccccn3)nc3c2cnn3C(C)C)c(=O)[nH]1` [Ex 95, N-[(4,6-Dimethyl-2-oxo-1,2-dihydro-3-pyridinyl)methyl]-1-(1-methylethyl)-6-{[2-(2-pyridinylamino)ethyl]amino}-1H-pyrazolo[3,4-b]pyridine-4-carboxamide], the half-maximal inhibitory concentration (IC50) is 489 nM.

With `Cc1cc(C)c(CNC(=O)c2cc(-c3cnc4c(c3)CCC(=O)N4)nc3c2cnn3C(C)C)c(=O)[nH]1` [Ex 96, N-[(4,6-Dimethyl-2-oxo-1,2-dihydro-3-pyridinyl)methyl]-1-(1-methylethyl)-6-(7-oxo-1,5,6,7-tetrahydro-1,8-naphthyridin-3-yl)-1H-pyrazolo[3,4-b]pyridine-4-carboxamide], the IC50 was 57 nM.

As to `CNS(=O)(=O)c1ccc(-c2cc(C(=O)NCc3c(C)cc(C)[nH]c3=O)c3cnn(C(C)C)c3n2)cn1` [Ex 97, N-[(4,6-Dimethyl-2-oxo-1,2-dihydro-3-pyridinyl)methyl]-6-{6-[(methylamino)sulfonyl]-3-pyridinyl}-1-(1-methylethyl)-1H-pyrazolo[3,4-b]pyridine-4-carboxamide], the IC50 was found to be 55 nM.

`Cc1cc(C)c(CNC(=O)c2cc(C3CC3)nc3c2cnn3CCNS(C)(=O)=O)c(=O)[nH]1` [Ex 99, 6-Cyclopropyl-N-[(4,6-dimethyl-2-oxo-1,2-dihydro-3-pyridinyl)methyl]-1-{2-[(methylsulfonyl)amino]ethyl}-1H-pyrazolo[3,4-b]pyridine-4-carboxamide]: the IC50 was determined as 25000 nM.

For `Cc1cc(C(=O)NCc2c(C)cc(C)[nH]c2=O)c2cnn(Cc3ccccc3)c2n1` [Ex 100, N-[(4,6-Dimethyl-2-oxo-1,2-dihydro-3-pyridinyl)methyl]-6-methyl-1-(phenylmethyl)-1H-pyrazolo[3,4-b]pyridine-4-carboxamide], the IC50 came out at 5750 nM.

`Cc1cc(C)c(CNC(=O)c2cc(C3CC3)nc3c2c(C)nn3C(C)C)c(=O)[nH]1` [Ex 103, 6-Cyclopropyl-N-[(4,6-dimethyl-2-oxo-1,2-dihydro-3-pyridinyl)methyl]-3-methyl-1-(1-methylethyl)-1H-pyrazolo[3,4-b]pyridine-4-carboxamide]: the IC50 turned out to be 373 nM.

Regarding `Cc1cc(C)c(CNC(=O)c2cc(C3CC3)nc3c2c(C)nn3C2CCC2)c(=O)[nH]1` [Ex 105, 1-Cyclobutyl-6-cyclopropyl-N-[(4,6-dimethyl-2-oxo-1,2-dihydro-3-pyridinyl)methyl]-3-methyl-1H-pyrazolo[3,4-b]pyridine-4-carboxamide], the IC50 amounted to 315 nM.

As for `Cc1cc(C)c(CNC(=O)c2cc(C3CC3)nc3c2c(C)nn3C2CCCC2)c(=O)[nH]1` [Ex 106, 1-Cyclopentyl-6-cyclopropyl-N-[(4,6-dimethyl-2-oxo-1,2-dihydro-3-pyridinyl)methyl]-3-methyl-1H-pyrazolo[3,4-b]pyridine-4-carboxamide], the IC50 came out at 119 nM.

For the compound `Cc1cc(C)c(CNC(=O)c2cc(C3CC3)nc3c2c(C)nn3C(C)(C)C)c(=O)[nH]1` [Ex 107, 6-Cyclopropyl-1-(1,1-dimethylethyl)-N-[(4,6-dimethyl-2-oxo-1,2-dihydro-3-pyridinyl)methyl]-3-methyl-1H-pyrazolo[3,4-b]pyridine-4-carboxamide], the IC50 came to 75 nM.

In the case of `Cc1cc(C)c(CNC(=O)c2cc(C3CC3)nc3c2c(C)nn3C(C)C2CC2)c(=O)[nH]1` (stereo not shown) [Ex 109, 6-Cyclopropyl-1-(1-cyclopropylethyl)-N-[(4,6-dimethyl-2-oxo-1,2-dihydro-3-pyridinyl)methyl]-3-methyl-1H-pyrazolo[3,4-b]pyridine-4-carboxamide], the IC50 came to 207 nM.

`Cc1cc(C)c(CNC(=O)c2cc(C3CC3)nc3c2c(C)nn3C2CCCCC2)c(=O)[nH]1` [Ex 110, 1-Cyclohexyl-6-cyclopropyl-N-[(4,6-dimethyl-2-oxo-1,2-dihydro-3-pyridinyl)methyl]-3-methyl-1H-pyrazolo[3,4-b]pyridine-4-carboxamide]: the IC50 came to 231 nM.

In the case of `Cc1cc(C)c(CNC(=O)c2cc(C3CC3)nc3c2c(C)nn3C2CCN(C)CC2)c(=O)[nH]1` [Ex 111, 6-Cyclopropyl-N-[(4,6-dimethyl-2-oxo-1,2-dihydro-3-pyridinyl)methyl]-3-methyl-1-(1-methyl-4-piperidinyl)-1H-pyrazolo[3,4-b]pyridine-4-carboxamide], the IC50 turned out to be 367 nM.

As to `Cc1cc(C)c(CNC(=O)c2cc(C3CC3)nc3c2c(C)nn3C2CCOCC2)c(=O)[nH]1` [Ex 112, 6-Cyclopropyl-N-[(4,6-dimethyl-2-oxo-1,2-dihydro-3-pyridinyl)methyl]-3-methyl-1-(tetrahydro-2H-pyran-4-yl)-1H-pyrazolo[3,4-b]pyridine-4-carboxamide], the IC50 was 693 nM.

Turning to `COc1ccc(-c2cc(C(=O)NCc3c(C)cc(C)[nH]c3=O)c3cnn(C(C)C)c3n2)cc1` [Ex 113, N-[(4,6-Dimethyl-2-oxo-1,2-dihydro-3-pyridinyl)methyl]-1-(1-methylethyl)-6-[4-(methyloxy)phenyl]-1H-pyrazolo[3,4-b]pyridine-4-carboxamide], the IC50 stood at 248 nM.

Regarding `Cc1cc(C)c(CNC(=O)c2cc(-c3ccncc3)nc3c2cnn3C(C)C)c(=O)[nH]1` [Ex 114, N-[(4,6-Dimethyl-2-oxo-1,2-dihydro-3-pyridinyl)methyl]-1-(1-methylethyl)-6-(4-pyridinyl)-1H-pyrazolo[3,4-b]pyridine-4-carboxamide], the IC50 was determined as 199 nM.

Turning to `Cc1cc(C)c(CNC(=O)c2cc(-c3ccncc3)nc3c2c(C)nn3C(C)C)c(=O)[nH]1` [Ex 117, N-[(4,6-Dimethyl-2-oxo-1,2-dihydro-3-pyridinyl)methyl]-3-methyl-1-(1-methylethyl)-6-(4-pyridinyl)-1H-pyrazolo[3,4-b]pyridine-4-carboxamide], the IC50 amounted to 190 nM.

For `Cc1cc(C)c(CNC(=O)c2cc(C(C)(C)C)nc3c2c(C)nn3C(C)(C)C)c(=O)[nH]1` [Ex 118, 1,6-Bis(1,1-dimethylethyl)-N-[(4,6-dimethyl-2-oxo-1,2-dihydro-3-pyridinyl)methyl]-3-methyl-1H-pyrazolo[3,4-b]pyridine-4-carboxamide], the IC50 was determined as 273 nM.

Consider `Cc1cc(C)c(CNC(=O)c2cc(-c3ccc(S(C)(=O)=O)cc3)nc3c2cnn3C(C)C)c(=O)[nH]1` [Ex 119, N-[(4,6-Dimethyl-2-oxo-1,2-dihydro-3-pyridinyl)methyl]-1-(1-methylethyl)-6-[4-(methylsulfonyl)phenyl]-1H-pyrazolo[3,4-b]pyridine-4-carboxamide], for which the IC50 was found to be 333 nM.

As to `Cc1cc(C)c(CNC(=O)c2cc(-c3ccc(-c4cn[nH]c4)cc3)nc3c2cnn3C(C)C)c(=O)[nH]1` [Ex 120, N-[(4,6-Dimethyl-2-oxo-1,2-dihydro-3-pyridinyl)methyl]-1-(1-methylethyl)-6-[4-(1H-pyrazol-4-yl)phenyl]-1H-pyrazolo[3,4-b]pyridine-4-carboxamide], the IC50 came to 270 nM.

For `COc1ccc(-c2cc(C(=O)NCc3c(C)cc(C)[nH]c3=O)c3c(C)nn(C(C)(C)C)c3n2)cc1` [Ex 121, 1-(1,1-Dimethylethyl)-N-[(4,6-dimethyl-2-oxo-1,2-dihydro-3-pyridinyl)methyl]-3-methyl-6-[4-(methyloxy)phenyl]-1H-pyrazolo[3,4-b]pyridine-4-carboxamide], the IC50 turned out to be 407 nM.

As to `Cc1cc(C)c(CNC(=O)c2cc(-c3cccnc3)nc3c2c(C)nn3C(C)(C)C)c(=O)[nH]1` [Ex 122, 1-(1,1-Dimethylethyl)-N-[(4,6-dimethyl-2-oxo-1,2-dihydro-3-pyridinyl)methyl]-3-methyl-6-(3-pyridinyl)-1H-pyrazolo[3,4-b]pyridine-4-carboxamide], the IC50 is 153 nM.

Consider `Cc1cc(C)c(CNC(=O)c2cc(-c3ccccc3)nc3c2c(Br)nn3C(C)C)c(=O)[nH]1` [Ex 123, 3-Bromo-N-[(4,6-dimethyl-2-oxo-1,2-dihydro-3-pyridinyl)methyl]-1-(1-methylethyl)-6-phenyl-1H-pyrazolo[3,4-b]pyridine-4-carboxamide], for which the half-maximal inhibitory concentration (IC50) came to 218 nM.
